Several values for one entry are separate records, joined by “and”; a condition that tells them apart may be missing. Equal entries are not always repeated. Where two headings read alike, the source gives them in different places.
Columns and labels:
[1] = system: P. falciparum oocyst formation in Anopheles stephensi mosquitoes; test: P. falciparum oocyst inhibition assay (SMFA); format: in vivo, Plasmodium falciparum; conditions: for Median (oocysts) / Median I % / Prevalence % / Prevalence I %: pooled from two representative experiments; for oocyst formation inhibition: 1 to 10 µM, midguts dissected 8 days after feeding
Method: As previously described, P. falciparum infections were performed using SMFA with NF54 gametocyte cultures diluted to 0.3% stage V gametocytemia ([62]). Infected blood (O+ human 45% hematocrit in serum) was offered to mosquitoes for 30 minutes, and engorged mosquitoes were maintained on a 10% corn syrup solution supplemented by four concentrations of CB compounds (1, 2.5, 5, and 10 µM) at […] ([63]), with DMSO serving as a control. Eight days post-infection, mosquito midguts were dissected and stained with 0.2% mercurochrome for 30 minutes, and oocysts were quantified under a light microscope ([63]).

[2] = system: P. berghei blood-stage parasites; test: P. berghei blood-stage isobolograms; format: cell-based, Plasmodium berghei
Method: Antimalarial activity and IC50 values of CB-61 and five antimalarial drugs were assessed using the previously described in vitro drug luminescence assay ([14], [68]). Blood-stage isobolograms were performed to confirm synergistic combinations between CB-61 and the five drugs, following established protocols ([69]). Thirty-two-fold IC50 concentrations were used to obtain six concentration ranges for each drug combination, and then they were serially diluted five times ([67]). IC50 scores for each drug alone were determined, and FIC50 values (FIC50 = […]) were calculated and plotted ([70], [71]). The Promega Luciferase Assay System Kit was used to measure mature schizonts’ RLUs, and Giemsa blood smears confirmed the presence of schizonts ([14]).

[3] = 1 μM compound, P. falciparum midgut infection in An. stephensi mosquitoes
[4] = 1 μM compound, infection prevalence in mosquitoes
[5] = 2.5 μM compound, P. falciparum midgut infection in An. stephensi mosquitoes
[6] = 2.5 μM compound, infection prevalence in mosquitoes
[7] = 5 μM compound, P. falciparum midgut infection in An. stephensi mosquitoes
[8] = 5 μM compound, infection prevalence in mosquitoes
[9] = 10 μM compound, P. falciparum midgut infection in An. stephensi mosquitoes
[10] = 10 μM compound, infection prevalence in mosquitoes

Compound: O=C(N/N=C/c1c(O)ccc2ccccc12)c1cc([N+](=O)[O-])cc([N+](=O)[O-])c1 [CB-61]
- Median oocyst # ([1]; 1 μM compound): 1
- Mean oocyst # excluding zeros (Range) [1, 3]: 30 (0-109)
- Prevalence [1, 4]: 60
- Median (oocysts) ([1]; 1 µM): 1
- Median I % ([1]; 1 µM): 83%
- Prevalence % ([1]; 1 µM): 59%
- Prevalence I % ([1]; 1 µM): 31%
- Median oocyst # ([1]; 2.5 μM compound): 1
- Mean oocyst # excluding zeros (Range) [1, 5]: 20 (0-65)
- Prevalence [1, 6]: 55
- Median (oocysts) ([1]; 2.5 µM): 1
- Median I % ([1]; 2.5 µM): 83%
- Prevalence % ([1]; 2.5 µM): 55%
- Prevalence I % ([1]; 2.5 µM): 36%
- % inhibition (median) ([1]; 2.5 μM, single experiments): 62%
- Median oocyst # ([1]; 5 μM compound): 1
- Mean oocyst # excluding zeros (Range) [1, 7]: 20 (0-68)
- Prevalence [1, 8]: 55
- Median (oocysts) ([1]; 5 µM): 1
- Median I % ([1]; 5 µM): 83%
- Prevalence % ([1]; 5 µM): 55%
- Prevalence I % ([1]; 5 µM): 36%
- % inhibition (median) ([1]; 5 μM, single experiments): 58%
- Mean oocyst # excluding zeros (Range) ([1]; 7.5 μM, single experiments): 15 (0-53)
- Median oocyst # ([1]; 7.5 μM, single experiments): 2.5
- Prevalence ([1]; 7.5 μM, single experiments): 75
- Median oocyst # ([1]; 10 μM compound): 0
- Mean oocyst # excluding zeros (Range) [1, 9]: 7 (0-30)
- Prevalence [1, 10]: 46
- Median (oocysts) ([1]; 10 µM): 0
- Median I % ([1]; 10 µM): 100%
- Prevalence % ([1]; 10 µM): 46%
- Prevalence I % ([1]; 10 µM): 47%
- Mean oocyst # excluding zeros (Range) ([1]; 25 μM, single experiments): 1 (0-2)
- Median oocyst # ([1]; 25 μM, single experiments): 0
- Prevalence ([1]; 25 μM, single experiments): 18
- Mean oocyst # excluding zeros (Range) ([1]; 50 μM, single experiments): 1 (0-2)
- Median oocyst # ([1]; 50 μM, single experiments): 0
- Prevalence ([1]; 50 μM, single experiments): 15
- oocyst formation inhibition [1]: inhibited midgut oocyst formation in a dose-dependent manner
- inhibition at 2.5 µM ([1]; read-out: % inhibition (mean), 2.5 μM compound, oocyst number vs DMSO control): 23%
- inhibition at 5 µM ([1]; read-out: % inhibition (mean), 5 μM compound, oocyst number vs DMSO control): 23%
- inhibition at 7.5 µM ([1]; read-out: % inhibition (mean), 7.5 μM, single experiments): 29%
- inhibition at 10 µM ([1]; read-out: % inhibition (mean), 10 μM compound, oocyst number vs DMSO control): 72%
- inhibition at 25 µM ([1]; read-out: % inhibition (mean), 25 μM, single experiments): 48%
- inhibition at 50 µM ([1]; read-out: % inhibition (mean), 50 μM, single experiments): 49%
- inhibition at 1 µM ([1]; read-out: % inhibition (median), 1 μM compound, oocyst number vs DMSO control): 83%
- inhibition at 2.5 µM ([1]; read-out: % inhibition (median), 2.5 μM compound, oocyst number vs DMSO control): 83%
- inhibition at 5 µM ([1]; read-out: % inhibition (median), 5 μM compound, oocyst number vs DMSO control): 83%
- inhibition at 7.5 µM ([1]; read-out: % inhibition (median), 7.5 μM, single experiments): 79%
- inhibition at 10 µM ([1]; read-out: % inhibition (median), 10 μM compound, oocyst number vs DMSO control): 100%
- inhibition at 25 µM ([1]; read-out: % inhibition (median), 25 μM, single experiments): 100%
- inhibition at 50 µM ([1]; read-out: % inhibition (median), 50 μM, single experiments): 100%
- inhibition at 1 µM ([1]; read-out: % inhibition (prevalence), 1 μM compound, vs DMSO control): 31%
- inhibition at 2.5 µM ([1]; read-out: % inhibition (prevalence), 2.5 μM compound, vs DMSO control): 36%
- inhibition at 5 µM ([1]; read-out: % inhibition (prevalence), 5 μM compound, vs DMSO control): 36%
- inhibition at 7.5 µM ([1]; read-out: % inhibition (prevalence), 7.5 μM, single experiments): 21%
- inhibition at 10 µM ([1]; read-out: % inhibition (prevalence), 10 μM compound, vs DMSO control): 47%
- inhibition at 25 µM ([1]; read-out: % inhibition (prevalence), 25 μM, single experiments): 74%
- inhibition at 50 µM ([1]; read-out: % inhibition (prevalence), 50 μM, single experiments): 78%
- Mean ΣFIC50 ([2]; combination with ATQ): 1.13
- Mean ΣFIC50 ([2]; combination with CLIND): 0.82
- Mean ΣFIC50 ([2]; combination with CQ (negative control)): 1.15
- Mean ΣFIC50 ([2]; combination with DHA): 1.44
- Mean ΣFIC50 ([2]; combination with HALO): 0.78
- Mean ΣFIC50 ([2]; combination with LUM): 1.20

Compound: O=C(NN=Cc1ccccc1O)c1cc(-c2ccccc2)nc2ccccc12 [CB-53]
- Median oocyst # ([1]; 1 μM compound): 1
- Mean oocyst # excluding zeros (Range) [1, 3]: 36 (0-125)
- Prevalence [1, 4]: 59
- inhibition at 1 µM ([1]; 1 μM compound, oocyst number vs DMSO control, read-out: % inhibition (mean)): 5%
- inhibition at 1 µM ([1]; 1 μM compound, oocyst number vs DMSO control, read-out: % inhibition (median)): 83%
- inhibition at 1 µM ([1]; 1 μM compound, vs DMSO control, read-out: % inhibition (prevalence)): 32%
- Median (oocysts) ([1]; 1 µM): 1
- Median I % ([1]; 1 µM): 83%
- Prevalence % ([1]; 1 µM): 59%
- Prevalence I % ([1]; 1 µM): 32%
- inhibition at 1 µM ([1]; 1 μM, single experiments, read-out: % inhibition (mean)): 36%
- Median oocyst # ([1]; 2.5 μM compound): 1
- Mean oocyst # excluding zeros (Range) [1, 5]: 29 (0-115)
- Prevalence [1, 6]: 60
- inhibition at 2.5 µM ([1]; 2.5 μM compound, oocyst number vs DMSO control, read-out: % inhibition (mean)): 22%
- inhibition at 2.5 µM ([1]; 2.5 μM compound, oocyst number vs DMSO control, read-out: % inhibition (median)): 83%
- inhibition at 2.5 µM ([1]; 2.5 μM compound, vs DMSO control, read-out: % inhibition (prevalence)): 31%
- Median (oocysts) ([1]; 2.5 µM): 1
- Median I % ([1]; 2.5 µM): 83%
- Prevalence % ([1]; 2.5 µM): 60%
- Prevalence I % ([1]; 2.5 µM): 31%
- Prevalence ([1]; 2.5 μM, single experiments): 67 and 91 and 47 and 70
- inhibition at 2.5 µM ([1]; 2.5 μM, single experiments, read-out: % inhibition (mean)): 37%
- Median oocyst # ([1]; 5 μM compound): 0
- Mean oocyst # excluding zeros (Range) [1, 7]: 26 (0-83)
- Prevalence [1, 8]: 48
- inhibition at 5 µM ([1]; 5 μM compound, oocyst number vs DMSO control, read-out: % inhibition (mean)): 44%
- inhibition at 5 µM ([1]; 5 μM compound, vs DMSO control, read-out: % inhibition (prevalence)): 44%
- Median (oocysts) ([1]; 5 µM): 0
- Median I % ([1]; 5 µM): 100%
- Prevalence % ([1]; 5 µM): 48%
- Prevalence I % ([1]; 5 µM): 44%
- % inhibition (mean) ([1]; 5 μM, single experiments): 23%
- inhibition at 5 µM ([1]; 5 μM, single experiments, read-out: % inhibition (mean)): 24%
- Median oocyst # ([1]; 10 μM compound): 1
- Mean oocyst # excluding zeros (Range) [1, 9]: 28 (0-129)
- Prevalence [1, 10]: 58
- inhibition at 10 µM ([1]; 10 μM compound, oocyst number vs DMSO control, read-out: % inhibition (mean)): 28%
- inhibition at 10 µM ([1]; 10 μM compound, oocyst number vs DMSO control, read-out: % inhibition (median)): 83%
- inhibition at 10 µM ([1]; 10 μM compound, vs DMSO control, read-out: % inhibition (prevalence)): 33%
- Median (oocysts) ([1]; 10 µM): 1
- Median I % ([1]; 10 µM): 83%
- Prevalence % ([1]; 10 µM): 58%
- Prevalence I % ([1]; 10 µM): 33%
- oocyst formation inhibition [1]: inhibit the development of oocysts
